Like-named read-outs stand apart in the source and are kept apart here.

For one data set, the target named is SHP2 (Homo sapiens (Human), UniProt Q06124). Briefly: SHP2 allosteric inhibitory enzyme activity assay (DiFMUP fluorescence). Type of data set: biochemical. The conditions noted are these: read-out: SHP2 enzymatic activity IC50. In a few lines:
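Human SHP2 (0.2 ng) preincubated 1 h at room temperature with 25 µM activating peptide IRS1_pY1172(dPEG8)pY1222 and compound (10-point series from 10 µM) in HEPES/NaCl/KCl/BRIJ-35/EDTA/DTT buffer. DiFMUP then added for 1 h; fluorescence at ex 340/em 450 nm, normalized to no-enzyme and no-inhibitor controls, IC50 from variable-slope fit.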

The target of a further data set is hERG potassium channel (Homo sapiens (Human), UniProt Q12809). Briefly: Patch clamp experiments on the hERG ion channel (HEK293 cells overexpressing hERG). A general note: In patch-clamp work, channel activity is measured electrically.
hERG potassium channel, sequence (Q12809 whole entry): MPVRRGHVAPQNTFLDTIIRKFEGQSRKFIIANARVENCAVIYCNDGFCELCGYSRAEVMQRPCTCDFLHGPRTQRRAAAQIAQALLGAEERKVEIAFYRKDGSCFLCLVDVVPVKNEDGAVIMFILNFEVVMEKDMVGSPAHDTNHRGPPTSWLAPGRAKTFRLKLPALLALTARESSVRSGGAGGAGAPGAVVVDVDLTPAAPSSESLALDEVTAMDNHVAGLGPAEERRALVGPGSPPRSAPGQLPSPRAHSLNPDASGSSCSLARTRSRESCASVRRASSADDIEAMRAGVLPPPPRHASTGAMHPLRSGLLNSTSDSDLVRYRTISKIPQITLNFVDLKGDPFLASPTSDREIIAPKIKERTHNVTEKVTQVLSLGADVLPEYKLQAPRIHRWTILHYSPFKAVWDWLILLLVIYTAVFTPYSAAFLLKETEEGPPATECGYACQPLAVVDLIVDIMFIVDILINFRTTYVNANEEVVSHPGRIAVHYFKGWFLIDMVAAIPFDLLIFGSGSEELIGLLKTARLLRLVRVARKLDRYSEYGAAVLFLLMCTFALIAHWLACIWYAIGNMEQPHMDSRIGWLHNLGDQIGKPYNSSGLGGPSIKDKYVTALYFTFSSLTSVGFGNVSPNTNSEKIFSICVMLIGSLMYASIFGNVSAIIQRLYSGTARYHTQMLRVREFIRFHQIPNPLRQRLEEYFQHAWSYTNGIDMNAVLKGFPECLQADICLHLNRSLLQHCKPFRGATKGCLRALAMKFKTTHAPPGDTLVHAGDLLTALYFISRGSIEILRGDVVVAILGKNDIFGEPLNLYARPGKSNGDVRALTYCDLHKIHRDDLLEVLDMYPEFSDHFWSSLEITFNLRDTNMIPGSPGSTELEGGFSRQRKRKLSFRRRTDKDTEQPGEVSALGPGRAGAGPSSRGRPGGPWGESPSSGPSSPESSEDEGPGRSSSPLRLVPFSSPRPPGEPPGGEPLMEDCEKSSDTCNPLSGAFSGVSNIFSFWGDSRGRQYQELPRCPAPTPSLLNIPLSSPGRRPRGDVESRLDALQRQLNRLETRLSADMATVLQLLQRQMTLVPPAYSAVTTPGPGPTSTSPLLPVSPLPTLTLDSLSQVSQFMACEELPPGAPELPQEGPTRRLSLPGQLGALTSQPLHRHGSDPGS
A further data set has as its system leukemia cells MV-4-11. Briefly: Cell proliferation assay, CELL TITER-GLO (CTG) luminescence, MV-4-11. The class given is cell-based. In a few lines:
(§1)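 NCI-H358 (2000 cells/well, ultra-low-attachment plates) and MV-4-11 cells were dosed 24 h after seeding at 1000 nM down to 0.1524 nM (3-fold steps). Viable-cell ATP was read by CellTiter-Glo luminescence after 96 h for NCI-H358 and 120 h for MV-4-11. IC50 came from a variable-slope fit of inhibition versus the 0 nM control.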
(Cellular ATP, detected with luciferase, serves as a proxy for viable cell number.)

The nature of data set [1]: In vitro metabolic stability in liver microsomes, dog. The class given is in vitro ADME. To be noted: for microsomal CLint at 2 µM: pH 7.3. Background: Liver microsomes are vesicles of endoplasmic reticulum, rich in cytochrome P450 enzymes.
The subject of data set [2] is lung cancer cells NCI-H358. Description: Cell proliferation assay, CELL TITER-GLO (CTG) luminescence, NCI-H358. Type of data set: cell-based. The conditions noted are these: cultured for 96 hrs. In short, it runs like this: as §1
A short description of data set [3]: In vitro metabolic stability in liver microsomes, human. The class given is in vitro ADME. To be noted: for microsomal CLint at 2 µM: pH 7.3, read-out: CLint (µL/min/mg protein) human. As to the method: (§2) Example D: In Vitro Metabolic Stability of Human and Rat Liver Microsomes Test Buffer Preparation
(§3) Dissolve 1900 mg of MgCl2 in 400 mL of ultrapure water.
(§4) Dissolve 17.42 g K2HPO4 and 13.65 g KH2PO4 into 1000 mL of ultrapure water, respectively. Mix a certain proportion of K2HPO4 and KH2PO4 to adjust the pH to 7.30 ± 0.10.
(§5) Prepare a solution of 10 ng/mL labetalol and 10 ng/mL glyburide in acetonitrile and store at 4° C.
(§6) Prepare 10 mM verapamil (positive control) and test article stock solutions in DMSO. Then, with MeOH/ACN/H2O solution (1:1:2 by volume), diluted to 50 µM and 200 µM working solutions, respectively.
(§7) experiment procedure: • 1) Add 40 µL MgCl2 and 306 µL PBS to 96 wells (set blank control group, positive control group, test compound sample group, and negative control group at the same time) • 2) Add 4 µL of compound working solution to each well (4 µL of PBS buffer for blank group) (Note: the final concentration of DMSO volume in the system is ≤ 0.5%) • 3) Add 10 µL of liver microsomes (concentration: 20 mg/mL) to each well, mix well, and pre-incubate at 37° C. for 10 minutes. • 4) Add 40 µL of 10 mM NADPH working solution to each well to start the reaction (add equal volume of PBS buffer for blank control group and negative control group respectively), the total reaction volume is 400 µL. • 5) Take out 50 µL samples from the above reaction solution at 0, 5, 15, and 45 minutes, and add 400 µL of reaction stop solution to stop the reaction • 6) Shake the sample after the termination of the reaction on a shaker for 5 minutes. • 7) Centrifuge the sample at 3200 rcf for 10 minutes. After the centrifugation is complete, transfer 50 µL of the supernatant to 200 µL of H2O for dilution for LC-MS/MS analysis.
(§8) Calculations of t½ and CLint are performed using the first-order kinetic equations: […]
(§9) where k represents the elimination constant, calculated from a log-linear plot of percentage remaining versus time. t½ represents half-life. Cprotein is the concentration of liver microsomes.

Data set [4] can be described thus: In vitro metabolic stability in liver microsomes, mouse. Type of data set: in vitro ADME. The conditions noted are these: for microsomal CLint at 2 µM: pH 7.3, read-out: CLint (µL/min/mg protein) mouse.
Data set [5] is described as follows: In vitro metabolic stability in liver microsomes, monkey. To be noted: for microsomal CLint at 2 µM: pH 7.3, read-out: CLint (µL/min/mg protein) monkey. The class given is in vitro ADME.
Data set [6] can be described thus: In vitro metabolic stability in liver microsomes, rat. The class given is in vitro ADME. The conditions noted are these: for microsomal CLint at 2 µM: pH 7.3, read-out: CLint (µL/min/mg protein) rat. The method, then:
as §2, §3, §4, §5, §6, §7, §8, §9

[7] abbreviates: read-out: hERG, patch clamp, peak tail current, HEK293.
[8] abbreviates: Homo sapiens, MV4-11, cultured for 120 hrs.
Where [9] appears, read: Homo sapiens, NCI-H358, ultra-low adsorption plate.

SHP2, sequence (Q06124 whole entry): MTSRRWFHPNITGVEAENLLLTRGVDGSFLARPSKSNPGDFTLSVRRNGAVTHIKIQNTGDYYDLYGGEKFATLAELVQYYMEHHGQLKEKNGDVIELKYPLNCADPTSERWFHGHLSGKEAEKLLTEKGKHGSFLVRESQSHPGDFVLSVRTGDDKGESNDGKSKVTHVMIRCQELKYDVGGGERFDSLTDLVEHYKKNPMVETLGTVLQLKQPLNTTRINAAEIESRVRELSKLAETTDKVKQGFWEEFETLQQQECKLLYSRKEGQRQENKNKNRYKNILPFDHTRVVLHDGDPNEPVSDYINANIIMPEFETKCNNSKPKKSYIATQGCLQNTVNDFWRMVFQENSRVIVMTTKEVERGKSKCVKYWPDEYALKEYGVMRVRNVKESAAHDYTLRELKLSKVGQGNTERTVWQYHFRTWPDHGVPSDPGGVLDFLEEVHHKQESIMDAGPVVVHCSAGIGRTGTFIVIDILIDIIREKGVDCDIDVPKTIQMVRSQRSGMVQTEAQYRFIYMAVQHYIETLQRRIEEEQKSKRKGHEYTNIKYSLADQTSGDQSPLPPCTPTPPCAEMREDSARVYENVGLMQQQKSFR
Protocol for hERG potassium channel: Example C Patch Clamp Experiments to Assess the Effects of Compounds on the hERG Ion Channel
Dilute the test sample diluent in sequence with extracellular fluid to prepare detection solutions with final concentrations of 0.3 µM, 1 µM, 3 µM, 10 µM and 30 µM. The solubility of the samples to be tested was visually checked.
The cell line was derived from HEK293 cells and cultured in a 37° C., 5% CO2 incubator. In order to prevent cell senescence caused by contact inhibition, when the cell culture confluence should not exceed 80%, the cells should be passaged every ¾ days, and the inoculation density of each T175 flask should be 2*106 cells. Pre-wash with Phosphate Buffered Saline (PBS), then trypsin/EDTA for 2-3 minutes, stop digestion by adding cell culture medium, and transfer to a new culture bottle.
HEK293 cells overexpressing the hERG potassium channel were cultured overnight at a cell density below 50%. Experimental cells were transferred to a cell bath embedded in an inverted microscope stage(Diaphot, Nikon) and perfused with extracellular fluid. The extracellular fluid contained 130 mM NaCl, 4 mM KCl, 1.8 mM CaCl2, 1 mM MgCl2, 10 mM glucose and 10 mM HEPES (pH 7.4 with NaOH) at a perfusion rate of 4 ml/min. The inner tube contains 130 mM KCl, 1 mM MgCl2, 5 mM EGTA, 5 mM MgATP and 10 mM HEPES (pH 7.2 with KOH). Membrane currents were recorded using a HEKA EPC-10 patch-clamp amplifier and [sequence] acquisition system (HEKA Instruments Inc., D-67466 Lambrecht, Pfalz, Germany). All experiments were done at room temperature (22-23° C.).
Electrodes (BF150-86-10) were straightened during the experiments using a P-97 microelectrode puller (Sutter Instrument Company, One Digital Drive, Novato, CA 94949). The inner diameter of the electrode is 1-1.5 mm, and the water entry resistance after filling with internal liquid is 2-4 MΩ.
When the whole-cell seal is formed, wait for the current to stabilize for 2 minutes (the current decay is less than 5% within 5 minutes, and the tail current value is greater than500 pA). At this time, the peak value of the tail current is the control current value. The extracellular fluid containing the drug to be tested is then perfused. The same procedure was repeated 3-5 times, exposing each cell to 4-6 increasing concentrations of compounds. Blocking and deactivation of hERG during compound exposure and washout were continuously recorded.
When the whole-cell seal was formed, the cell membrane voltage was clamped at -80 mV, depolarized for 2 seconds every 12 seconds, and the clamping voltage was depolarized from -80 mV to -50 mV under a 5-second repolarization pulse of -50 mV. Measure the peak tail current.
Peak hERG tail currents were measured under a 5 s repolarization pulse of -50 mV. Each drug concentration was plotted against the current inhibition rate as a function of the logarithm of the compound concentration. The following Hill equation was used to fit a concentration-response curve to fit IC50.
Y: test value; Bottom: the lowest test value (0); Top: the highest test value (1); Hillcoefficient: the maximum absolute value of the slope of the curve.
Data are presented as mean ± standard deviation.

As for `N[C@@H]1c2ccccc2CC12CCN(c1ncc(C#CCOc3ccncc3)nc1CO)CC2` [Compound A18, (S) - (3-(1-amino-1,3-dihydrospiro [indene-2,4′-piperidine]-1′-yl)-6-(3-(pyridin-4-oxy)prop-1-yn-1-yl)pyrazin-2-yl) methanol], the IC50 at SHP2 is 35 nM; against hERG potassium channel it was > 20000 nM.
Consider `N[C@@H]1c2ccccc2CC12CCN(c1ncc(C#CCOc3ccc(S(N)(=O)=O)cc3)nc1CO)CC2` [Compound A32, (S)-4-((3-(5-(1-amino-1,3-dihydrospiro[indene-2,4′-piperidin]-1′-yl)-6-(hydroxymethy 1)pyrazin-2-yl)prop-2-yn-1-yl)oxy)benzenesulfonamide], for which the IC50 is 3.4 nM in the data set on leukemia cells MV-4-11 (cultured for 120 hrs), 9 nM in data set [2] (ultra-low adsorption plate), 1.3 nM at SHP2 and > 20000 nM at hERG potassium channel (setting [7]). The “CLint (µL/min/mg protein) dog” value in data set [1] (dog liver microsomes) was determined as 1.9 µL/min/mg protein. Moreover, the “CLint (µL/min/mg protein) human” value in [3] is 2.2 µL/min/mg protein. Also, the “CLint (µL/min/mg protein) mouse” value in data set [4] stood at 10.6 µL/min/mg protein. The “CLint (µL/min/mg protein) monkey” value in data set [5] is listed as 10.1 µL/min/mg protein. The “CLint (µL/min/mg protein) rat” value in data set [6] is listed as 14.7 µL/min/mg protein.
For `CC(=O)Nc1cccc(OCC#Cc2cnc(N3CCC4(CC3)Cc3ccccc3[C@H]4N)c(C(N)=O)n2)c1` [Compound A41], the values for the IC50 at SHP2 and on hERG potassium channel (setting [7]) were 14 nM and > 20000 nM, respectively.
Consider `NC(=O)c1ccc(OCC#Cc2cnc(N3CCC4(CC3)Cc3ccccc3[C@H]4N)c(CO)n2)cc1F` [Compound A50, (S)-4-((3-(5-(1-amino-1,3-dihydrospiro[indene-2,4′-piperidin]-1′-yl)-6-(hydroxymethy 1)pyrazin-2-yl)prop-2-yn-1-yl)oxy)-2-fluorobenzamide], for which the IC50 in the data set with leukemia cells MV-4-11 (cultured for 120 hrs) was 2.2 nM; in data set [2] (ultra-low adsorption plate), 3.3 nM; at SHP2, 1.7 nM. Besides, the “CLint (µL/min/mg protein) dog” value in data set [1] (dog, microsomes) is recorded as 5.2 µL/min/mg protein. In addition, the “CLint (µL/min/mg protein) human” value in data set [3] was found to be 7.4 µL/min/mg protein. In addition, the “CLint (µL/min/mg protein) mouse” value in data set [4] is listed as 3.1 µL/min/mg protein. The “CLint (µL/min/mg protein) monkey” value in data set [5] is listed as 5.9 µL/min/mg protein. In data set [6], the “CLint (µL/min/mg protein) rat” value was 11.4 µL/min/mg protein.
With `N[C@@H]1c2ccccc2CC12CCN(c1ncc(C#CCOc3ccc4c(c3)CNC4=O)nc1CO)CC2` [Compound A51, (S)-5-((3-(5-(1-amino-1,3-dihydrospiro[indene-2,4′-piperidin]-1′-yl)-6-(hydroxymethy 1)pyrazin-2-yl)prop-2-yn-1-yl)oxy)isoindolin-1-one], the IC50 was found to be 1 nM with leukemia cells MV-4-11 (cultured for 120 hrs), 0.8 nM in data set [2] (ultra-low adsorption plate) and 2.4 nM at SHP2. Also, the “CLint (µL/min/mg protein) dog” value in data set [1] (dog, microsomes) is reported as 22.2 µL/min/mg protein. In data set [3], the “CLint (µL/min/mg protein) human” value stood at 9.9 µL/min/mg protein. For the same compound, the “CLint (µL/min/mg protein) mouse” value in data set [4] is reported as 16.7 µL/min/mg protein. Further, the “CLint (µL/min/mg protein) monkey” value in data set [5] was found to be 26.2 µL/min/mg protein. Also, the “CLint (µL/min/mg protein) rat” value in data set [6] came out at 12.5 µL/min/mg protein.
For the compound `NC(=O)c1ccc(OCC#Cc2cnc(N3CCC4(CC3)Cc3ccccc3[C@H]4N)c(CO)n2)cc1Cl` [Compound A54, (S)-4-((3-(5-(1-amino-1,3-dihydrospiro[indene-2,4′-piperidin]-1′-yl)-6-(hydroxymethyl)pyrazin-2-yl)prop-2-yn-1-yl)oxy)-2-chlorobenzamide], the IC50 amounted to 1.6 nM with leukemia cells MV-4-11 (setting [8]), 2.2 nM in data set [2] (setting [9]) and 0.7 nM on SHP2. The microsomal CLint at 2 µM came out at 12.8 µL/min/mg in data set [1] (dog, microsomes); 12.1 µL/min/mg in data set [3]; 10.4 µL/min/mg in [4]; 13.7 µL/min/mg in data set [5]; 12.8 µL/min/mg in data set [6].
In the case of `CN(CC#Cc1cnc(N2CCC3(CC2)Cc2ccccc2[C@H]3N)c(CO)n1)c1ccc(C(N)=O)cc1` [Compound A55, (S)-4-((3-(5-(1-amino-1,3-dihydrospiro[indene-2,4′-piperidin]-1′-yl)-6-(hydroxymethyl)pyrazin-2-yl)prop-2-yn-1-yl)(methyl)amino)benzamide], the results for the IC50 (with leukemia cells MV-4-11 (setting [8]); in data set [2] (setting [9]); at SHP2) were 9.6 nM, 26 nM and 2.7 nM, respectively. Also, the microsomal CLint at 2 µM in [1] (dog, microsomes) was 20.7 µL/min/mg; in [3] it was 14.7 µL/min/mg; in data set [4], 14.3 µL/min/mg; in [5] it was 20 µL/min/mg; in data set [6], 24.7 µL/min/mg.
Take `CP(C)(=O)c1ccc(OCC#Cc2cnc(N3CCC4(CC3)Cc3ccccc3[C@H]4N)c(CO)n2)cc1` [Compound A57]: the IC50 with leukemia cells MV-4-11 (cultured for 120 hrs) was 10 nM; in [2] (ultra-low adsorption plate) it was 22 nM; at SHP2 it was 4.3 nM; on hERG potassium channel (setting [7]) it was > 20000 nM.
Regarding `N[C@@H]1c2ccccc2CC12CCN(c1ncc(C#CCNc3ncco3)nc1CO)CC2` [Compound A60], the figures for the IC50 (with leukemia cells MV-4-11 (cultured for 120 hrs); in data set [2] (ultra-low adsorption plate); at SHP2) were 13 nM, 41 nM and 1.6 nM, respectively. For the same compound, the “CLint (µL/min/mg protein) dog” value in data set [1] (dog liver microsomes) is listed as 10.8 µL/min/mg protein. For the same compound, the “CLint (µL/min/mg protein) human” value in [3] amounted to 9.9 µL/min/mg protein. The “CLint (µL/min/mg protein) mouse” value in data set [4] is recorded as 15.1 µL/min/mg protein. Besides, the “CLint (µL/min/mg protein) monkey” value in data set [5] turned out to be 16.9 µL/min/mg protein. The “CLint (µL/min/mg protein) rat” value in data set [6] came out at 10.4 µL/min/mg protein.
On to `Cn1nccc1NCC#Cc1cnc(N2CCC3(CC2)Cc2ccccc2[C@H]3N)c(CO)n1` [Compound A61, (S)-(3-(1-amino-1,3-dihydrospiro[indene-2,4′-piperidin]-1′-yl)-6-(3-((1-methyl-1H-pyrazol-5-yl)amino)prop-1-yn-1-yl)pyrazin-2-yl)methanol], for which the IC50 in the data set on leukemia cells MV-4-11 (setting [8]) amounted to 5.1 nM; in data set [2] (setting [9]) it was 9.4 nM; on SHP2, 1.8 nM. Further, the microsomal CLint at 2 µM in data set [1] (dog, microsomes) came out at 14.5 µL/min/mg; in data set [3] it was 13 µL/min/mg; in [4], 14.1 µL/min/mg; in data set [5] it was 6.1 µL/min/mg; in data set [6], 15.9 µL/min/mg.
In the case of `NC(=O)c1ccc(OCC#Cc2cnc(N3CCC4(CC3)Cc3ccccc3[C@H]4N)cn2)cc1Cl` [Compound A62, (S)-4-((3-(5-(1-amino-1,3-dihydrospiro[inden-2,4′-piperidin]-1′-yl)pyrazin-2-yl)prop-2-yn-1-yl)oxy)-2-chlorobenzamide], the IC50 with leukemia cells MV-4-11 (setting [8]) worked out at 14 nM; in [2] (setting [9]) it was 56 nM; at SHP2 it was 1.5 nM. Besides, the microsomal CLint at 2 µM amounted to 2.9 µL/min/mg in data set [1] (dog, microsomes); 2.6 µL/min/mg in data set [3]; 9.7 µL/min/mg in data set [4]; 19.2 µL/min/mg in data set [5]; 8.1 µL/min/mg in data set [6].
`NC(=O)Cc1ccc(OCC#Cc2cnc(N3CCC4(CC3)Cc3ccccc3[C@H]4N)c(CO)n2)cc1` [Compound A71, (S)-2-(4-((3-(5-(1-amino-1,3-dihydrospiro[indene-2,4′-piperidin]-1′-yl)-6-(hydroxylmethyl)pyrazin-2-yl)prop-2-yn-1-yl)oxy)phenyl)ace tamide]: the IC50 is 2.3 nM with leukemia cells MV-4-11 (setting [8]), 4.3 nM in data set [2] (setting [9]), 2.9 nM on SHP2 and > 20000 nM on hERG potassium channel.

(Values after US20230339882A1, “SHP2 INHIBITOR AND COMPOSITION AND APPLICATION THEREOF” (Betta Pharmaceuticals Co., Ltd., priority 2020, published 2023).)
